Assays:
[1] = system: isolated perfused mesenteric vessels of rats; experiment: inhibition of noradrenalin-induced vasoconstriction in isolated perfused mesenteric vessels of rats; type: cell-based; settings: Rattus norvegicus, in vitro
Text: (§1) The compounds of the formula I and salts thereof have valuable pharmacological properties, especially in the cardiovascular field. […] 177, 21-30, (1965)] by way of the inhibition of potassium- and noradrenalininduced vasoconstriction, for example using 2,6-dimethyl-4-(3-nitrophenyl)-1,4-dihydropyridine-3,5-dicarboxylic acid 3-methyl ester 5-[2-[N-(4-(4-fluorophenyl)-4-oxo-n-butyl)-N-methylamino]ethyl ester] at a concentration of approx. 10^-8 mol/liter (IC50) for the inhibition of potassium-induced vasoconstriction, and at a concentration of approx. 3×10^-10 mol/liter (IC50) for the inhibition of noradrenalin-induced vasoconstriction. […] Pharmacol. 21, 301-304 (1982)], for example using 2,6-dimethyl-4-(3-nitrophenyl)-1,4-dihydropyridine-3,5-dicarboxylic acid 3-methyl ester 5-[2-[N-(4-(4-fluorophenyl)-4-oxo-n-butyl)-N-methylamino]ethyl ester] at a concentration of approx. 10^-8 mol/liter (IC50).

[2] = molecular target: T1, serotonin2 -receptors (Rattus norvegicus, UniProt P14842); experiment: displacement of 3H-ketanserin from its bonding sites in membranes of rats' brains; type: binding; settings: read-out: IC50, displacement of 3H-ketanserin from serotonin2-receptor bonding sites
T1 construct: membranes of rats' brains; from tissue; host or cells: rat brain membranes
T1 sequence (P14842 whole entry): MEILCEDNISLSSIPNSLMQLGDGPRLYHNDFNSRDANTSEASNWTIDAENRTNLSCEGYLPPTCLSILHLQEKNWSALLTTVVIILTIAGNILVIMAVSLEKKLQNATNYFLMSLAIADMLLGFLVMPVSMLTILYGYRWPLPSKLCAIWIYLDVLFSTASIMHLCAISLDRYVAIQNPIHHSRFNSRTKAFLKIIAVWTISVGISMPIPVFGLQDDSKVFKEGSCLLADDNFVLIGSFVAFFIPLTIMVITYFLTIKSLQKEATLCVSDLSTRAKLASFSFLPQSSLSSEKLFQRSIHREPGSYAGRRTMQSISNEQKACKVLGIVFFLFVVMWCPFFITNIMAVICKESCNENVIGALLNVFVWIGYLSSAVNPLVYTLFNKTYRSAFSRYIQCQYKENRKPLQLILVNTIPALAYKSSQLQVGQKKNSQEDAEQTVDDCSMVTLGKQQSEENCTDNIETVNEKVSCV
Text: as §1

[3] = system: renally hypertonic rats; experiment: reduction in blood pressure in renally hypertonic rats; type: in vivo; settings: 2 hours after p.o. administration of 15 mg/kg
Protocol: For example, 2 hours after p.o. administration of 15 mg/kg of 2,6-dimethyl-4-(3-nitrophenyl)-1,4-dihydropyridine-3,5dicarboxylic acid 3-methyl ester 5-[2-[N-(4-(4-fluorophenyl)-4-oxo-n-butyl)-N-methylamino]ethyl ester] to renally hypertonic rats, a reduction in blood pressure of approx. 45 mm Hg may be observed.

[4] = system: isolated perfused mesenteric vessels of rats; experiment: inhibition of potassium-induced vasoconstriction in isolated perfused mesenteric vessels of rats; type: cell-based; settings: Rattus norvegicus, in vitro
Text: as §1

With COC(=O)C1=C(C)NC(C)=C(C(=O)OCCN(C)CCCC(=O)c2ccc(F)cc2)C1c1cccc([N+](=O)[O-])c1 (stereo not shown) [2,6-dimethyl-4-(3-nitrophenyl)-1,4-dihydropyridine-3,5-dicarboxylic acid 3-methyl ester 5-[2-[N-(4-(4-fluorophenyl)-4-oxo-n-butyl)-N-methylamino]ethyl ester]] the IC50 [1] was about 0.3 nM, the IC50 [2] was about 10 nM and the “reduction in blood pressure” value [3] was “approx. 45 mm Hg”. For the same compound, the IC50 [4] was about 10 nM.

From patent publication US4808603A, “3,5-diacyl-2,6-dialkyl-4-aryl-1,4-dihydropyridines, their use, and pharmaceutical compositions thereof” (Ciba-Geigy Corporation, priority 1985, dated 1989)
